According to US20250011288A1 (BRISTOL-MYERS SQUIBB COMPANY, priority 2021, published 2025):

These compounds were tested against T1, human RXFP1 (Homo sapiens, UniProt Q9HBX9) (assay: human RXFP1 (hRXFP1) HEK293 cAMP assay (HTRF)). Conditions: HEK293 cells stably expressing human RXFP1, 30 min at room temperature.
T1 construct: expressed in transfected cells
T1 sequence (Q9HBX9 1-757): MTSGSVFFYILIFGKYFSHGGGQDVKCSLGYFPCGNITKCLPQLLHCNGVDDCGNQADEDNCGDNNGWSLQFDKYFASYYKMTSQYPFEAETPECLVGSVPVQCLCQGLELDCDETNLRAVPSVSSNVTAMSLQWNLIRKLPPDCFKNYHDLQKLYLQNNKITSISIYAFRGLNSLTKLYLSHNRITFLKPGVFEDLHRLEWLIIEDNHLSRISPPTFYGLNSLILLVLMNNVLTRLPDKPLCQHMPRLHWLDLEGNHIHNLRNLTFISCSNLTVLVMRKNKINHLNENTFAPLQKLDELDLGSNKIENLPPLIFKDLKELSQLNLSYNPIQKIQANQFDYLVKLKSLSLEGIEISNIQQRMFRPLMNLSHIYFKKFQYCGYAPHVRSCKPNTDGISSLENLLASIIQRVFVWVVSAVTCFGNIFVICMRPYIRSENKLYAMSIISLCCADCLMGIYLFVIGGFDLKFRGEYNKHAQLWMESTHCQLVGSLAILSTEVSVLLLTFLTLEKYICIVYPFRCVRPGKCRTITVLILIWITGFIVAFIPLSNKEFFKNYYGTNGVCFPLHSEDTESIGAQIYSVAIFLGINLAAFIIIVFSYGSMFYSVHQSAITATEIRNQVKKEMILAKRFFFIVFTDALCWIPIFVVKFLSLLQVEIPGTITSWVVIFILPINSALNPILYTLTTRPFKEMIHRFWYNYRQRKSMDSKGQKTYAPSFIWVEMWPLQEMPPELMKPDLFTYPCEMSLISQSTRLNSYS
Type: cell-based
Summary of the method: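 HEK293 cells stably expressing human RXFP1 (1500 cells/well) in HBSS/20 mM HEPES/0.05% BSA/0.5 mM IBMX, treated with compound (0.010 nM–50 µM final, 2% DMSO) for 30 min at room temperature. Intracellular cAMP read by HTRF; potency from 4-parameter logistic fit of cAMP versus concentration.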

| SMILES | EC50 |
| --- | --- |
| COc1ncc(Br)cc1C(=O)N[C@@H]1C2CCC(C2=C(C)C)[C@@H]1C(=O)Nc1ccc(F)c(C(F)(F)F)c1 (stereo partly drawn) [Example 1, 5-bromo-N-[(2R,3S)-3-{[4-fluoro-3-(trifluoromethyl)phenyl]carbamoyl}-7-(propan-2-ylidene)bicyclo[2.2.1]heptan-2-yl]-2-methoxypyridine-3-carboxamide] | 710 nM |
| COc1ncc(-c2cnc3n2CC(O)CC3)cc1C(=O)N[C@H]1[C@@H](C(=O)Nc2ccc(F)c(C(F)(F)F)c2)[C@H]2CC[C@@H]1/C2=C\C1CC1 (stereo partly drawn) [Example 104, N-((1R,2R,3S,4R,Z)-7-(cyclopropyl-methylene)-3-((4-fluoro-3-(trifluoromethyl)phenyl)carbamoyl)bicyclo[2.2.1]heptan-2-yl)-5-(6-hydroxy-5,6,7,8-tetrahydroimidazo[1,2-a]pyridin-3-yl)-2-methoxynicotinamide] | 4 nM |
| COc1ncc(-c2cc([C@H](OC(=O)Nc3ccccc3)C(F)(F)F)ccc2F)nc1C(=O)N[C@@H]1C2CCC(/C2=C/C(F)(F)F)[C@@H]1C(=O)Nc1ccc(F)c(C(F)(F)F)c1 (stereo partly drawn) [Example 35, (1S)-2,2,2-trifluoro-1-[4-fluoro-3-(6-{[(2R,3S,7Z)-3-{[4-fluoro-3-(trifluoromethyl)phenyl]carbamoyl}-7-(2,2,2-trifluoroethylidene)bicyclo[2.2.1]heptan-2-yl]carbamoyl}-5-methoxypyrazine-2-yl)phenyl]ethyl N-phenylcarbamate] | 42 nM |
| COc1ncc(C2=NOC3CC(CO)CC23)cc1C(=O)N[C@H]1[C@@H](C(=O)Nc2ccc(F)c(C(F)(F)F)c2)[C@H]2CC[C@@H]1/C2=C\c1cscn1 (stereo partly drawn) [Example 96, N-((1R,2R,3S,4R,Z)-3-((4-fluoro-3-(trifluoromethyl)phenyl)carbamoyl)-7-(thiazol-4-ylmethylene)bicyclo[2.2.1]heptan-2-yl)-5-(5-(hydroxymethyl)-3a,5,6,6a-tetrahydro-4H-cyclopenta[d]isoxazol-3-yl)-2-methoxy-nicotinamide] | 1.4 nM |
| O=C(O)c1ccc(F)c(-c2cc(C(=O)N[C@@H]3C4CCC(/C4=C/C(F)(F)F)[C@@H]3C(=O)Nc3ccc(F)c(C(F)(F)F)c3)c(OCCO)cn2)c1 (stereo partly drawn) [Example 44, 4-Fluoro-3-(4-{[(2R,3S,7Z)-3-{[4-fluoro-3-(trifluoromethyl)phenyl]carbamoyl}-7-(2,2,2-trifluoroethylidene)bicyclo[2.2.1]heptan-2-yl]carbamoyl}-5-(2-hydroxyethoxy)pyridin-2-yl)benzoic acid] | 360 nM |
| COc1ncc(C#CCO)cc1C(=O)N[C@@H]1C2CCC(/C2=C/C(F)(F)F)[C@@H]1C(=O)Nc1ccc(F)c(C(F)(F)F)c1 (stereo partly drawn) [Example 49, N-[(2R,3S,7Z)-3-{[4-fluoro-3-(trifluoromethyl)phenyl]carbamoyl}-7-(2,2,2-trifluoroethylidene)bicyclo[2.2.1]heptan-2-yl]-5-(3-hydroxyprop-1-yn-1-yl)-2-methoxypyridine-3-carboxamide] | 153 nM |
| O=C(O)c1ccc(F)c(C23COC(C(=O)N[C@H]4[C@@H](C(=O)Nc5ccc(F)c(C(F)(F)F)c5)[C@H]5CC[C@@H]4/C5=C\C(F)(F)F)(C2)C3)c1 [Example 81, 4-fluoro-3-(1-(((1R,2R,3S,4R,Z)-3-((4-fluoro-3-(trifluoromethyl)phenyl)carbamoyl)-7-(2,2,2-trifluoroethylidene)bicyclo[2.2.1]heptan-2-yl)carbamoyl)-2-oxabicyclo[2.1.1]hexan-4-yl)benzoic acid] | 2300 nM |
| O=C(NC1CCC1)O[C@@H](c1ccc(F)c(-c2cnc(OCCO)c(C(=O)N[C@@H]3C4CCC(/C4=C/C(F)(F)F)[C@@H]3C(=O)Nc3ccc(F)c(C(F)(F)F)c3)c2)c1)C(F)(F)F (stereo partly drawn) [Example 43, (IS)-2,2,2-trifluoro-1-14-fluoro-3-(5-{[(2R,3S,7Z)-3-{[4-fluoro-3-(trifluoromethyl)phenyl]carbamoyl}-7-(2,2,2-trifluoroethylidene)bicyclo[2. 2.1]heptan-2-yl]carbamoyl}-6-(2-hydroxyethoxy)pyridin-3-yl)phenyl]ethyl N-cyclobutylcarbamate] | 9.4 nM |
| COc1ncc(C2=NOC3COCC23)cc1C(=O)N[C@H]1[C@@H](C(=O)Nc2ccc(F)c(C(F)(F)F)c2)[C@H]2CC[C@@H]1/C2=C\C1CC1 (single isomer, unassigned) [Example 61] | 3.7 nM |

Now from value to compound:

| EC50 | SMILES |
| --- | --- |
| 5.3 nM | COc1ncc(-c2c(C)nn3c2COCC3)cc1C(=O)N[C@H]1[C@@H](C(=O)Nc2ccc(F)c(C(F)(F)F)c2)[C@H]2CC[C@@H]1/C2=C\C1CCCC1 [Example 150, N-[(1R,2R,3S,4R, 7Z)-7-(cyclopentyl-methylidene)-3-{[4-fluoro-3-(trifluoromethyl)phenyl]carbamoyl}bicyclo[2.2.1]heptan-2-yl]-2-methoxy-5-{2-methyl-4H,6H,7H-pyrazolo[3,2-c][1,4]oxazin-3-yl}pyridine-3-carboxamide] |
| 7.8 nM | COc1cc(C2=NOC3CC(COC(=O)Nc4ccccc4)CC23)cc(C(=O)N[C@@H]2C3CCC(/C3=C/C3CC3)[C@@H]2C(=O)Nc2ccc(F)c(C(F)(F)F)c2)n1 (stereo partly drawn) [Example 158, [3-(2-{[(2R,3S,7Z)-7-(cyclopropyl-methylidene)-3-{[4-fluoro-3-(trifluoromethyl)phenyl]carbamoyl}bicyclo[2.2.1]heptan-2-yl]carbamoyl}-6-methoxypyridin-4-yl)-3aH,4H,5H,6H, 6aH-cyclopenta[d][1,2]oxazol-5-yl]methyl N-phenylcarbamate] |
| 1.2 nM | COc1ncc(C2=NOC3CC(C(O)C(F)(F)F)CC23)cc1C(=O)N[C@H]1[C@@H](C(=O)Nc2ccc(F)c(C(F)(F)F)c2)[C@H]2CC[C@@H]1/C2=C\C1CC1 (stereo partly drawn) [Example 130, N-((1R,2R,3S,4R,Z)-7-(cyclopropylmethylene)-3-((4-fluoro-3-(trifluoromethyl)phenyl)carbamoyl)bicyclo[2.2.1]heptan-2-yl)-2-methoxy-5-(5-(2,2,2-trifluoro-1-hydroxyethyl)-3a,5,6,6a-tetrahydro-4H-cyclopenta[d]isoxazol-3-yl)nicotinamide] |
| 4.3 nM | COc1ncc(C2=NOC3CN(CC(O)C(F)(F)F)CC23)cc1C(=O)N[C@H]1[C@@H](C(=O)Nc2ccc(F)c(C(F)(F)F)c2)[C@H]2CC[C@@H]1/C2=C\C1CC1 (stereo partly drawn) [Example 180, N-[(1R,2R,3S,4R, 7Z)-7-(cyclopropyl-methylidene)-3-{[4-fluoro-3-(trifluoromethyl)phenyl]carbamoyl}bicyclo[2.2.1]heptan-2-yl]-2-methoxy-5-[5-(3,3,3-trifluoro-2-hydroxypropyl)-3aH,4H,5H,6H, 6aH-pyrrolo[3,4-d][1,2]oxazol-3-yl]pyridine-3-carboxamide] |
| 4.2 nM | COc1ncc(C2=NOC3CC(O)CC23)cc1C(=O)N[C@H]1[C@@H](C(=O)Nc2ccc(F)c(C(F)(F)F)c2)[C@H]2CC[C@@H]1/C2=C\C1CCCC1 (stereo partly drawn) [Example 126, N-((1R,2R,3S,4R,Z)-7-(cyclopentylmethylene)-3-((4-fluoro-3-(trifluoromethyl)phenyl)carbamoyl)bicyclo[2.2.1]heptan-2-yl)-5-(5-hydroxy-3a,5,6,6a-tetrahydro-4H-cyclopenta[d]isoxazol-3-yl)-2-methoxynicotinamide] |
